Experiment [1] deals with SW480 cells. The conditions noted are these: SW480, earlier reports; cited from earlier work.
The subject of experiment [2] is HT-29 cells. The conditions noted are these: HT-29, earlier reports; cited from earlier work.
Experiment [3] relates to LNCaP cells. Description: Western blot analysis of protein expression in LNCaP cells. The experiment is classed as cell-based, Human. The conditions noted are these: 10 μM, compound alone. As to the method:
Human carcinoma cell lines LNCaP (prostate) and SK-MEL2 (melanoma) were obtained from American Type Culture Collection (Manassas, Va.). Cell lines were maintained in RPMI 1640 (Sigma) supplemented with 0.22% sodium bicarbonate, 0.011% sodium pyruvate, 0.45% glucose, 0.24% HEPES, 10% FBS, and 10 mL/L of 100× Antibiotic Antimycotic solution (Sigma). Cells were maintained at 37° C. in the presence of 5% CO2.
An equal amount of cell lysate (60 μg/well) was separated by 7.5% to 12% SDS-PAGE, which was followed by immunoblotting onto polyvinylidene difluoride (Bio-Rad, Hercules, Calif.). After blocking in TBST-Blotto (10 mmol/L Tris-HCl, 150 mmol/L NaCl (pH 8.0), 0.05% Triton X-100, 5% nonfat dry milk) for 30 min, the membranes were incubated with primary antibodies overnight at 4° C. and then with horseradish peroxidase-conjugated secondary antibody for 2 hr at room temperature. Proteins were visualized using the chemiluminescence substrate (Perkin-Elmer Life Sciences) for 1 min and exposed to Kodak X-OMAT AR autoradiography film (Eastman Kodak, Rochester, N.Y.).
A general note: In western blotting, separated proteins are transferred to a membrane and probed.

For experiment [4], the system named is SW480 cells. The settings on record: SW480, reference [9]; cited from earlier work.
In experiment [5] the test system is HT-29 cells. Briefly: KLF4 mRNA (RT-PCR) in HT-29 cells. The format is cell-based, human. Here is the method: SW480 and HT29 colon cancer cells were treated either with vehicle (DMSO) or indicated compounds and after 24 hr total RNA was extracted using RNeasy Mini kit (Qiagen, Inc., Valencia, Calif.). RNA concentration was measured by UV 260:280 nm absorption ratio and 2 μg RNA was used to synthesize cDNA using Reverse Transcription System (Promega). PCR conditions were as follows: initial denaturation at 94° C. (1 min) followed by 28 cycles of denaturation for 30 s at 94° C., annealing for 60 s at 55° C. and extension at 72° C. for 60 s and a final extension step at 72° C. for 5 min. The mRNA levels were normalized using GAPDH as an internal housekeeping gene. Primers obtained from IDT and used for amplification are as follows: KLF4 (sense 5′-CTATGGCAGGGAGTCCGCTCC-3′ (SEQ ID NO: 1); antisense 5′-ATGACCGACGGGCTGCCGTAC-3′ (SEQ ID NO: 2)) and GAPDH (sense 5′-ACGGATTTGGTCGTATTGGGCG-3′ (SEQ ID NO: 3); antisense 5′-CTCCTGGAAGATGGTGATGG-3′ (SEQ ID NO: 4). PCR products were electrophoresed on 1% agarose gels containing ethidium bromide and visualized under UV transillumination.

For experiment [6], the target named is T1, PPARγ (Homo sapiens, UniProt P37231).
T1 construct: containing the DEF region of the PPARγ (amino acids 183-505) fused to the pVP16 expression vector; expressed in transfected cells; host or cells: SW480 colon cancer cells; plasmid provided by Dr. Shigeaki Kato (University of Tokyo)
T1 sequence (P37231 183-505): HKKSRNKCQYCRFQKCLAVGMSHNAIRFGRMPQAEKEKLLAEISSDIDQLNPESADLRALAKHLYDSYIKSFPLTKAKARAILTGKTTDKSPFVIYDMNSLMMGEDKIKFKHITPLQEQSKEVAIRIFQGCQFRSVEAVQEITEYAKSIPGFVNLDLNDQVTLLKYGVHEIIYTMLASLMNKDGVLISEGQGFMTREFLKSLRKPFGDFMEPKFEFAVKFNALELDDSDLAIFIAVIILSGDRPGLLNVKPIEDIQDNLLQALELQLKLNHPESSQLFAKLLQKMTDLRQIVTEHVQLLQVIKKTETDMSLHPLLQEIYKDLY
Briefly: Mammalian two-hybrid assay (VP-PPARγ / GAL4-coactivator) in SW480 cells. The experiment is classed as cell-based. Here is the method:
The GAL4 reporter construct containing 5×GAL4 response elements (p GAL4) was provided by Dr. Marty Mayo (University of […], Chapel Hill, N.C.). The GAL4-coactivator fusion plasmids pM-SRC1, pMSRC2, pMSRC3, pM-DRIP205, pM-CARM-1 and PPARγ-VP16 fusion plasmid (Vp-PPARγ) containing the DEF region of the PPARγ (amino acids 183-505) fused to the pVP16 expression vector were provided by Dr. Shigeaki Kato (University of Tokyo, Tokyo, Japan). SW480 colon cancer cells were plated in 12-well tissue culture plates at 1×10^5 cells per well in DMEM/Ham's F-12 medium supplemented with 2.5% charcoal stripped FBS.
After allowing them to adhere overnight, transient transfections were carried out with GAL4-Luc (0.4 μg), β-GAL (0.04 μg), VP-PPARγ (0.04 μg), pM-SRC1 (0.04 μg), pM-PGC-1 (0.04 μg), pM-SMRT (0.04 μg), pM-TRAP220 (0.04 μg), pM-DRIP205 (0.04 μg), and pMCARM1 (0.04 μg) using LipofectAMINE2000 (Invitrogen) following the manufacturer's guidelines. After 6 hr of transfection, cells were treated in triplicate either with vehicle (DMSO) or the indicated compound suspended in complete medium for 20-24 hr. One hundred μL per well of 1× Reporter Lysis Buffer (Promega) was used to lyse the cells and 30 μl of this lysate was used to perform the luciferase and β-GAL assays using Lumicount (Perkin-Elmer Life and Analytical Sciences, Boston, Mass.). The luciferase activities obtained were normalized to the β-gal activity.

The source of these data is US20090203661A1, “Betulinic acid, derivatives and analogs thereof and uses therefor” (priority 2006, published 2009).

Structures are written as SMILES. Residues, ends and D or L forms follow the SMILES beside them. *: point of attachment. Cbz = O=C(OCc1ccccc1)*

In the case of `CC1(C)CC[C@]2(C(=O)O)CC[C@]3(C)[C@H](C(=O)C=C4[C@@]5(C)C=C(C#N)C(=O)C(C)(C)[C@@H]5CC[C@]43C)[C@@H]2C1` [CDDO], the caveolin-1 induction entry in experiment [1] and in experiment [2] was “inducing caveolin-1” throughout.
On to `CC(C)C[C@@H](C=O)NC(=O)[C@H](CC(C)C)NC(=O)[C@H](CC(C)C)NC(=O)OCc1ccccc1` [MG132] (Cbz-Leu-Leu-Leu-aldehyde), for which the PARP cleavage entry in experiment [3] is listed as “induced caspase-dependent cleavage of PARP”.
`COC(=O)[C@@]1(C)CC[C@]2(C)CC[C@]3(C)C(=CC(=O)[C@@H]4[C@@]5(C)C=C(C#N)C(=O)C(C)(C)[C@@H]5CC[C@]43C)[C@H]2C1` [α-CDODA-Me]: the “KLF4 mRNA” value in experiment [4] is “enhanced KLF4 mRNA”. The caveolin-1 induction entry in experiment [1] and in experiment [2] was “inducing caveolin-1” in each case.
For `COC(=O)[C@@]1(C)CCC2(C)CC[C@]3(C)C(=CC(=O)[C@@H]4C5(C)C=C(C#N)C(=O)C(C)(C)[C@@H]5CCC43C)C2C1` (stereo partly drawn) [β-CDODA-Me, Methyl 2-cyano-3,12-dioxo-18β-olean-1,12-diene-30-oic Acid, reference compound], the “effect of T007 on induction of KLF4 mRNA” value in experiment [5] (HT-29, cotreatment with T007) is “decreased significantly”. Also, in experiment [5] (cotreatment with T007), the “part of induced KLF4 mRNA response inhibited by T007” value is 60-80%. In addition, the “luciferase activity, VP-PPARγ with GAL4 PGC-1 and GAL4 SRC-1” value in experiment [6] was “significantly induced luciferase activity”.
Turning to `CC1(C)C(=O)C(C#N)=C[C@]2(C)[C@H]3C(=O)C=C4[C@@H]5C[C@@](C)(C(=O)O)CC[C@]5(C)CC[C@@]4(C)[C@]3(C)CC[C@@H]12` [β-CDODA], the caveolin-1 induction entry in experiment [2] is recorded as “induced caveolin-1”.
